Measurements from US20230416237A1, “AMIDE COMPOUND, PHARMACEUTICAL COMPOSITION AND USE THEREOF” (SHENZHEN BO LI JIAN MEDICINE CO., LTD., priority 2020, published 2023).

Columns and labels:
[1] = target: JAK2 (Homo sapiens (Human), UniProt O60674); assay: JAK2 inhibitory activity, mobility shift assay, 1 mM ATP; type: biochemical; conditions: Table 7
Method: (§1) The JAK1 inhibitory activity and the JAK2 inhibitory activity of the amide compounds provided in the above examples were tested by the method below.
(§2) Specific steps are described below. • 1. A 1× Kinase buffer was formulated. • 2. Concentration gradients of the compound were formulated: a test compound with an initial concentration of 10000 nM (JAK1) or 30000 nM (JAK2) was diluted in a 384-well plate to a 100% DMSO solution with a 100-fold final concentration, wherein the compound was diluted by a fold of 3 to 10 concentrations. 250 nL of the compound with the 100-fold final concentration was transferred with a dispenser Echo 550 to the target plate. • 3. A kinase solution with a 2.5-fold final concentration was prepared with the 1× Kinase buffer. • 4. […] The plate was centrifuged at 1000 rpm for 30 s, shaken and uniformly mixed, and incubated for 10 min at room temperature. • 6. A mixed solution of ATP (the final concentration of ATP=1 mM) and Kinase substrate with a 5/3-fold final concentration was formulated with the 1× Kinase buffer. • 7. 15 μL of the mixed solution of ATP and the substrate with the 5/3-fold final concentration was added to initiate the reaction. • 8. The 384-well plate was centrifuged at 1000 rpm for 30 s, shaken and uniformly mixed, and incubated for respective times at room temperature. • 9. The kinase reaction was stopped by adding 30 μL of a detection termination solution, and the plate was centrifuged at 1000 rpm for 30 s and shaken and uniformly mixed. • 10. The conversion rate was read with Caliper EZ Reader and the half maximal inhibitory concentration (IC50) was calculated.

[2] = target: JAK1 (Homo sapiens (Human), UniProt P23458); assay: JAK1 inhibitory activity, mobility shift assay, 1 mM ATP; type: biochemical; conditions: 1 mM ATP; Table 7
Sequence of JAK1 (P23458 850-1154): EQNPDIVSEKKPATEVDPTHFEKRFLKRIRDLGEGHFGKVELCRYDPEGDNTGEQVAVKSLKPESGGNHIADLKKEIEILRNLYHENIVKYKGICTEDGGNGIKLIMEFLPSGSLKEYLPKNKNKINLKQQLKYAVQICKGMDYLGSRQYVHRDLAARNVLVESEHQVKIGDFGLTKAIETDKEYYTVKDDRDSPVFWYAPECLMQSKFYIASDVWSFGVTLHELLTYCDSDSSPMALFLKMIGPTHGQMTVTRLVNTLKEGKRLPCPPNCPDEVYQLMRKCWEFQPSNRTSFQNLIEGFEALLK
Method: as §1, §2

Sequence of JAK2 (O60674 826-1132): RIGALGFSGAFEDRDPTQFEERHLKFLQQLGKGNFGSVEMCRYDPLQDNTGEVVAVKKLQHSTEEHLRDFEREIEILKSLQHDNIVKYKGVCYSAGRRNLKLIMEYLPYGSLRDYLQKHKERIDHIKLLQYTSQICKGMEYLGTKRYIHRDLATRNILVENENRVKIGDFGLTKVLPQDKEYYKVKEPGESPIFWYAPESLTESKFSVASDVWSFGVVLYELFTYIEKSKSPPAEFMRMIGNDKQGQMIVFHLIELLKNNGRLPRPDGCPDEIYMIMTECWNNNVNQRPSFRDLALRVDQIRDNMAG

Structure (SMILES) | IC50 [1] [nM] | IC50 [2] [nM]
COc1nn(C)cc1Nc1ncc(F)c(-c2c[nH]c3c(NC(=O)[C@H]4CCCN4[C@H]4CCN(C)C4)cccc23)n1 [Example 25, (2R,3′S)-N-(3-(5-fluoro-2-((3-methoxy-1-methyl-1H-pyrazol-4-yl)amino)pyrimidin-4-yl)-1H-indol-7-yl)-1′-methyl-[1,3′-bipyrrolidine]-2-carboxamide] | 12400 | 68
COc1nn(C)cc1Nc1ncc(F)c(-c2c[nH]c3c(NC(=O)[C@H]4CC(F)(F)CN4[C@@H]4CCN(C)C4)cccc23)n1 [Example 26, (2R,3′R)-4,4-difluoro-N-(3-(5-fluoro-2-((3-methoxy-1-methyl-1H-pyrazol-4-yl)amino)pyrimidin-4-yl)-1H-indol-7-yl)-1′-methyl-[1,3′-bipyrrolidine]-2-carboxamide] | 5490 | 48
COc1nn(C)cc1Nc1ncc(C)c(-c2c[nH]c3c(NC(=O)[C@H]4CCCN4[C@@H]4CCN(C)C4)cccc23)n1 [Example 28, (2R,3′R)-N-(3-(2-((3-methoxy-1-methyl-1H-pyrazol-4-yl)amino)-5-methylpyrimidin-4-yl)-1H-indol-7-yl)-1′-methyl-[1,3′-bipyrrolidine]-2-carboxamide] | 16300 | 40
COc1nn(C)cc1Nc1ncc(C)c(-c2c[nH]c3c(NC(=O)[C@H]4CCCN4[C@H]4CCN(C)C4)cccc23)n1 [Example 29, (2R,3′S)-N-(3-(2-((3-methoxy-1-methyl-1H-pyrazol-4-yl)amino)-5-methylpyrimidin-4-yl)-1H-indol-7-yl)-1′-methyl-[1,3′-bipyrrolidine]-2-carboxamide] | 13400 | 67
COc1nn(C)cc1Nc1ncc(C)c(-c2c[nH]c3c(NC(=O)[C@H]4C[C@H](F)CN4[C@H]4CCN(C)C4)cccc23)n1 [Example 31, (2R,3′S,4S)-4-fluoro-N-(3-(2-((3-methoxy-1-methyl-1H-pyrazol-4-yl)amino)-5-methylpyrimidin-4-yl)-1H-indol-7-yl)-1′-methyl-[1,3′-bipyrrolidine]-2-carboxamide] | 11900 | 92
COc1nn(C)cc1Nc1nccc(-c2c[nH]c3c(NC(=O)[C@H]4CC(F)(F)CN4[C@@H]4CCN(C)C4)cccc23)n1 [Example 36, (2R,3′R)-4,4-difluoro-N-(3-(2-((3-methoxy-1-methyl-1H-pyrazol-4-yl)amino)pyrimidin-4-yl)-1H-indol-7-yl)-1′-methyl-[1,3′-bipyrrolidine]-2-carboxamide] | 12000 | 91
COc1nn(C)cc1Nc1nccc(-c2c[nH]c3c(NC(=O)[C@H]4CC(F)(F)CN4[C@H]4CCN(C)C4)cccc23)n1 [Example 37, (2R,3′S)-4,4-difluoro-N-(3-(2-((3-methoxy-1-methyl-1H-pyrazol-4-yl)amino)pyrimidin-4-yl)-1H-indol-7-yl)-1′-methyl-[1,3′-bipyrrolidine]-2-carboxamide] | 10800 | 216
COc1nn(C)cc1Nc1nccc(-c2c[nH]c3c(NC(=O)[C@H]4C[C@H](F)CN4C4CCN(C)CC4)cccc23)n1 [Example 40, (2R,4S)-4-fluoro-N-(3-(2-((3-methoxy-1-methyl-1H-pyrazol-4-yl)amino)pyrimidin-4-yl)-1H-indol-7-yl)-1-(1-methylpiperidin-4-yl)pyrrolidine-2-carboxamide] | 24300 | 259

Stronger by IC50 [1], values ahead:

IC50 [1] [nM] | IC50 [2] [nM] | Structure (SMILES)
5280 | 34 | COc1nn(C)cc1Nc1ncc(F)c(-c2c[nH]c3c(NC(=O)[C@H]4C[C@H](F)CN4[C@@H]4CCN(C)C4)cccc23)n1 [Example 38, (2R,3′R,4S)-4-fluoro-N-(3-(5-fluoro-2-((3-methoxy-1-methyl-1H-pyrazol-4-yl)amino)pyrimidin-4-yl)-1H-indol-7-yl)-1′-methyl-[1,3′-bipyrrolidine]-2-carboxamide]
4850 | 50 | COc1nn(C)cc1Nc1ncc(F)c(-c2c[nH]c3c(NC(=O)[C@H]4C[C@H](F)CN4[C@H]4CCN(C)C4)cccc23)n1 [Example 39, (2R,3′S,4S)-4-fluoro-N-(3-(5-fluoro-2-((3-methoxy-1-methyl-1H-pyrazol-4-yl)amino)pyrimidin-4-yl)-1H-indol-7-yl)-1′-methyl-[1,3′-bipyrrolidine]-2-carboxamide]
4400 | 60 | COc1nn(C)cc1Nc1ncc(F)c(-c2c[nH]c3c(NC(=O)[C@H]4CC(F)(F)CN4[C@H]4CCN(C)C4)cccc23)n1 [Example 27, (2R,3′S)-4,4-difluoro-N-(3-(5-fluoro-2-((3-methoxy-1-methyl-1H-pyrazol-4-yl)amino)pyrimidin-4-yl)-1H-indol-7-yl)-1′-methyl-[1,3′-bipyrrolidine]-2-carboxamide]
3430 | 39 | COc1nn(C)cc1Nc1ncc(C)c(-c2c[nH]c3c(NC(=O)[C@H]4CC(F)(F)CN4[C@H]4CCN(C)C4)cccc23)n1 [Example 33, (2R,3′S)-4,4-difluoro-N-(3-(2-((3-methoxy-1-methyl-1H-pyrazol-4-yl)amino)-5-methylpyrimidin-4-yl)-1H-indol-7-yl)-1′-methyl-[1,3′-bipyrrolidine]-2-carboxamide]
2510 | 161 | COc1nn(C)cc1Nc1ncc(C)c(-c2c[nH]c3c(NC(=O)[C@H]4CC(F)(F)CN4[C@@H]4CCOC4)cccc23)n1 [Example 34, (R)-4,4-difluoro-N-(3-(2-((3-methoxy-1-methyl-1H-pyrazol-4-yl)amino)-5-methylpyrimidin-4-yl)-1H-indol-7-yl)-1-((R)-tetrahydrofuran-3-yl)pyrrolidine-2-carboxamide]
1890 | 115 | COc1nn(C)cc1Nc1ncc(C)c(-c2c[nH]c3c(NC(=O)[C@H]4CC(F)(F)CN4[C@H]4CCOC4)cccc23)n1 [Example 35, (R)-4,4-difluoro-N-(3-(2-((3-methoxy-1-methyl-1H-pyrazol-4-yl)amino)-5-methylpyrimidin-4-yl)-1H-indol-7-yl)-1-((S)-tetrahydrofuran-3-yl)pyrrolidine-2-carboxamide]
